We go through 21 compounds from US9738591B2, “Antimicrobial compounds” (priority 2009, dated 2017).

Data set [1] concerns Staphylococcus aureus NCTC 6571/ATCC 9144. In words: Disk diffusion. The conditions noted are these: for zones of inhibition with S aureus NCTC6571: applied at 10 mg/ml; for Zone of Inhibition: S. aureus NCTC 6571; for Zone of inhibition, S. aureus NCTC 6571: analogues in DMSO, protocol of Example 3. For orientation: In agar diffusion tests the substance spreads into inoculated agar from a disc or well.

Data set [2] deals with Shigella flexneri NCTC 8192. Nature of the data set: Disk diffusion. The class given is cell-based. The conditions noted are these: S. flexneri NCTC 8192. The protocol:
Plates were incubated at 35° C.

In data set [3] the test system is Aeromonas hydrophila NCTC 8049/ATCC 7966. Nature of the data set: Disk diffusion. The following applies: A. hydrophila NCTC 8049.
The test system of data set [4] is Citrobacter freundii NCTC 9750/ATCC 8090. In words: Disk diffusion. The following applies: C. freundii NCTC 9750.
In data set [5] the test system is Escherichia coli NCTC 10538. Nature of the data set: Disk diffusion. The conditions noted are these: E. coli NCTC 10538.
The test system of data set [6] is Moraxella catarrhalis NCTC 3625. In words: Disk diffusion. The conditions noted are these: M. catarrhalis NCTC 3625.
Data set [7] has as its system Proteus mirabilis NCTC 10975. Nature of the data set: Disk diffusion. The following applies: P. mirabilis NCTC 10975.
In data set [8] the test system is Pseudomonas aeruginosa NCTC 10662. Nature of the data set: Disk diffusion. The following applies: P. aeruginosa NCTC 10662.
In data set [9] the test system is Salmonella enterica subsp. enterica serovar Typhimurium ATCC 13311. Nature of the data set: Disk diffusion. The following applies: S. typhimurium ATCC 13311.
The subject of data set [10] is Stenotrophomonas maltophilia ATCC 13637. In words: Disk diffusion. The following applies: S. maltophilia ATCC 13637.
The test system of data set [11] is Yersinia enterocolitica clinical 26609. Nature of the data set: Disk diffusion. The following applies: Y. enterocolitica clinical 26609.
Data set [12] concerns Bacillus cereus ATCC 13061. In words: Disk diffusion. The conditions noted are these: B. cereus ATCC 13061.
Data set [13] deals with Bacillus subtilis ATCC 6633. Nature of the data set: Disk diffusion. The following applies: B. subtilis ATCC 6633.
Data set [14] relates to Enterococcus faecalis NCTC 775. Nature of the data set: Disk diffusion. The conditions noted are these: E. faecalis NCTC 775.
Data set [15] has as its system Listeria monocytogenes NCTC 7973. Nature of the data set: Disk diffusion. The following applies: L. monocytogenes NCTC 7973.
In data set [16] the test system is Micrococcus luteus ATCC 10240. In words: Disk diffusion. The following applies: M. luteus ATCC 10240.
Data set [17] has as its system Staphylococcus aureus (methicillin resistant) NCTC 10442. Nature of the data set: Disk diffusion. The following applies: S. aureus NCTC 10442.
In data set [18] the test system is Staphylococcus epidermidis ATCC 12228. In words: Disk diffusion. The following applies: S. epidermidis ATCC 1228.
Data set [19] relates to Staphylococcus xylosus ATCC 29971. Nature of the data set: Disk diffusion. The conditions noted are these: S. xylosus ATCC 29971.
The subject of data set [20] is Streptococcus pneumoniae ATCC 49619. Nature of the data set: Disk diffusion. The conditions noted are these: S. pneumoniae ATCC 49619.
The test system of data set [21] is Streptococcus pyogenes NCTC 8191. Nature of the data set: Disk diffusion. The following applies: S. pyogenes NCTC 8191.
For another data set, the system named is E. coli NCTC 10418. In words: Disk diffusion. The conditions noted are these: for Zone of Inhibition: E. coli NCTC 10418; for Zone of inhibition, E. coli NCTC 10418: analogues in DMSO, protocol of Example 3.
Data set [22] has as its system A. calcoaceticus ATCC 15308. In words: Disk diffusion.
For the next data set, the system named is K. pneumoniae NCTC 10896. In words: Disk diffusion.
The subject of data set [23] is V. cholerae non-01 clinical. In words: Disk diffusion.
In the next data set the test system is C. albicans ATCC 90028. Nature of the data set: Disk diffusion.
In data set [24] the test system is S. typhimurium TA98, TA100 and TA1535. In words: Ames Test for mutagenic activity, no metabolic activation. The conditions noted are these: 5 μg/plate, duplicate plates.

Several values for one entry are separate records, joined by “and”; a condition that tells them apart may be missing. Equal entries are not always repeated.

As for `O=C(O)c1ccc(/C=C/c2ccc(/C=C/c3ccc(C(=O)O)cc3)cc2)cc1` [DSB001], the “zones of inhibition with S aureus NCTC6571” value in data set [1] is “no zones of inhibition”.
The same measure, in the same setting: for `O=C(O)c1ccc(CCc2cccc(CCc3ccc(C(=O)O)cc3)c2)cc1` [DSB004] the value was “no zones of inhibition”; for `O=C(O)c1ccc(CCc2ccc(CCc3ccc(C(=O)O)cc3)cc2)cc1` [DSD002], “no zones of inhibition”.
For the compound `O=C(O)c1ccc(/C=C/c2cc(/C=C/c3ccc(C(=O)O)cc3)c(/C=C/c3ccc(C(=O)O)cc3)cc2/C=C/c2ccc(C(=O)O)cc2)cc1` [QSB001], the “Zone of Inhibition” value is reported as 0 mm in data set [2]; 7 mm in data set [3]; 8.5 mm in [4]; 7.5 mm in data set [5]; 18 mm in data set [6]; 0 mm in data set [7]. The “Zone of Inhibition” value was determined as 0 mm in [8]; 8.5 mm in data set [9]; 8 mm in data set [10]; 7.5 mm in [11]; 0 mm in data set [12]; 0 mm in data set [13]. Further, the “Zone of Inhibition” value in data set [14] worked out at 0 mm; in data set [15], 0 mm; in data set [16], 0 mm; in data set [1] it was 8.5 mm; in data set [17] it was 0 mm; in data set [18], 0 mm. The “Zone of Inhibition” value in [19] is 0 mm; in [20] it was 9 mm; in data set [21], 8 mm; in the data set on E. coli NCTC 10418 it was 7 mm; in [22] it was 0 mm; in the data set on K. pneumoniae NCTC 10896, 8 mm. In addition, the “Zone of Inhibition” value was 8 mm in data set [23] and 0 mm in the data set with C. albicans ATCC 90028.
As to `O=C(O)c1ccc(CCc2cc(CCc3ccc(C(=O)O)cc3)c(CCc3ccc(C(=O)O)cc3)cc2CCc2ccc(C(=O)O)cc2)cc1` [QSB002], in data set [1], the “zones of inhibition with S aureus NCTC6571” value is given as “no zones of inhibition”.
Turning to `O=C(O)/C=C/c1cc(/C=C/C(=O)O)cc(/C=C/C(=O)O)c1` [TAB001], the “Zone of inhibition, S. aureus NCTC 6571” value in data set [1] stood at 0 mm.
`O=C(O)/C=C/c1ccc(-c2cc(-c3ccc(/C=C/C(=O)O)cc3)cc(-c3ccc(/C=C/C(=O)O)cc3)c2)cc1` [TCB001]: the “Zone of inhibition, S. aureus NCTC 6571” value in data set [1] amounted to 11 mm.
In the case of `CCCCOC(=O)/C=C/c1ccc(-c2cc(-c3ccc(/C=C/C(=O)OCCCC)cc3)cc(-c3ccc(/C=C/C(=O)OCCCC)cc3)c2)cc1` [TCB003], the “Zone of inhibition, S. aureus NCTC 6571” value in [1] turned out to be 0 mm.
`CCCCOC(=O)/C=C/c1ccc(-c2nc(-c3ccc(/C=C/C(=O)OCCCC)cc3)nc(-c3ccc(/C=C/C(=O)OCCCC)cc3)n2)cc1` [TCT003]: the “Zone of inhibition, S. aureus NCTC 6571” value in [1] came to 0 mm. Also, the “Zone of inhibition, E. coli NCTC 10418” value with E. coli NCTC 10418 came out at 0 mm.
For `CN(C)c1ccc(/C=C/c2cc(/C=C/c3ccc(N(C)C)cc3)cc(/C=C/c3ccc(N(C)C)cc3)c2)cc1` [TSB009], in data set [1], the “Zone of inhibition, S. aureus NCTC 6571” value was determined as 0 mm.
With `COc1ccc(/C=C/c2cc(/C=C/c3ccc(OC)cc3)cc(/C=C/c3ccc(OC)cc3)c2)cc1` [TSB019], the “Zone of inhibition, S. aureus NCTC 6571” value in data set [1] was found to be 0 mm. In the data set on E. coli NCTC 10418, the “Zone of inhibition, E. coli NCTC 10418” value stood at 0 mm.
`CC(=O)Oc1ccc(/C=C/c2cc(/C=C/c3ccc(OC(C)=O)cc3)cc(/C=C/c3ccc(OC(C)=O)cc3)c2)cc1` [TSB023]: the “Zone of inhibition, S. aureus NCTC 6571” value in data set [1] is 0 mm. For the same compound, in the data set with E. coli NCTC 10418, the “Zone of inhibition, E. coli NCTC 10418” value is reported as 0 mm.
Regarding `CC(=O)c1ccc(/C=C/c2cc(/C=C/c3ccc(C(C)=O)cc3)cc(/C=C/c3ccc(C(C)=O)cc3)c2)cc1` [TSB025], the “Zone of inhibition, S. aureus NCTC 6571” value in [1] amounted to 0 mm. Also, in the data set with E. coli NCTC 10418, the “Zone of inhibition, E. coli NCTC 10418” value came out at 0 mm.
On to `Cc1ccc(/C=C/c2cc(/C=C/c3ccc(C)cc3)cc(/C=C/c3ccc(C)cc3)c2)cc1` [TSB037], for which, in [1], the “Zone of inhibition, S. aureus NCTC 6571” value stood at 0 mm. Besides, the “Zone of inhibition, E. coli NCTC 10418” value with E. coli NCTC 10418 is 0 mm.
On to `CC(C)Oc1ccc(/C=C/c2cc(/C=C/c3ccc(OC(C)C)c(OC(C)C)c3)cc(/C=C/c3ccc(OC(C)C)c(OC(C)C)c3)c2)cc1OC(C)C` [TSB041], for which the “Zone of inhibition, S. aureus NCTC 6571” value in data set [1] stood at 0 mm. Also, in the data set on E. coli NCTC 10418, the “Zone of inhibition, E. coli NCTC 10418” value amounted to 0 mm.
On to `COc1cc(/C=C/c2cc(/C=C/c3cc(OC)c(OC)c(OC)c3)cc(/C=C/c3cc(OC)c(OC)c(OC)c3)c2)cc(OC)c1OC` [TSB049], for which the “Zone of inhibition, S. aureus NCTC 6571” value in data set [1] is on record as 0 mm. Moreover, the “Zone of inhibition, E. coli NCTC 10418” value in the data set with E. coli NCTC 10418 is listed as 0 mm.
Regarding `C(=C\c1cc(/C=C/c2ccncc2)cc(/C=C/c2ccncc2)c1)/c1ccncc1` [TSB053], the “Zone of inhibition, S. aureus NCTC 6571” value in data set [1] stood at 0 mm.
Consider `N#Cc1ccc(/C=C/c2cc(/C=C/c3ccc(C#N)cc3)cc(/C=C/c3ccc(C#N)cc3)c2)cc1` [TSB063], for which the “Zone of inhibition, S. aureus NCTC 6571” value in [1] worked out at 0 mm. Further, in the data set with E. coli NCTC 10418, the “Zone of inhibition, E. coli NCTC 10418” value was determined as 0 mm.
In the case of `C(=C\c1cc(/C=C/c2ccc(-c3nnn[nH]3)cc2)cc(/C=C/c2ccc(-c3nnn[nH]3)cc2)c1)/c1ccc(-c2nnn[nH]2)cc1` [TSB065], the “Zone of inhibition, S. aureus NCTC 6571” value in data set [1] is 14 mm. Besides, the “Zone of inhibition, E. coli NCTC 10418” value in the data set on E. coli NCTC 10418 amounted to 0 mm.
Consider `O=C(O)c1ccc(/C=C/c2ccc(/C=C/c3ccc(C(=O)O)cc3)c(/C=C/c3ccc(C(=O)O)cc3)c2)cc1` [TSB067], for which the “Zone of Inhibition” value stood at 0 mm in [2]; 7 mm in [3]; 0 mm in [4]; 7.5 mm in data set [5]; 32 mm in [6]; 0 mm in data set [7]. In addition, the “Zone of Inhibition” value in data set [8], in data set [9], in data set [10], in data set [11], in data set [12] and in [13] was 0 mm throughout. Besides, the “Zone of Inhibition” value in [14] is recorded as 0 mm; in [15], 12 mm; in data set [16] it was 20 mm; in data set [1] it was 14 mm; in [17] it was 12 mm; in [18] it was 11 mm. The “Zone of Inhibition” value was 0 mm in [19]; 16 mm in data set [20]; 14 mm in [21]; 6.5 mm in the data set with E. coli NCTC 10418; 0 mm in data set [22]; 0 mm in the data set with K. pneumoniae NCTC 10896. Moreover, the “Zone of Inhibition” value (in data set [23]; in the data set with C. albicans ATCC 90028) was 0 mm each time.
For the compound `[N-]=[N+]=[N-]` [sodium azide, reference compound], the “Number of colonies, Positive Control” value in data set [24] (TA100, negative control 113, 96) was 350 and 360; in [24] (TA1535, negative control 28, 29), 600.
